The source of these data is patent US10392367B2, “IRE1 small molecule inhibitors” (QUENTIS THERAPEUTICS, INC., priority 2017, dated 2019).

Experiment [1] deals with T1, IRE1a (Homo sapiens, UniProt O75460). As to the kind of experiment: In vitro FRET assay (XBP1 RNA probe cleavage by IRE1a). The settings on record: SignalChem IRE1a protein 2 nM. Further details: purchased SignalChem. The experiment is classed as biochemical. On the procedure: In vitro FRET assay was performed to evaluate the ability of select compounds to inhibit IRE1, the results of which are summarized in Table 3. To perform the in vitro FRET assay, 1× complete assay buffer (CAB; […] DTT, 50 mM sodium citrate pH 7.15, 1 mM magnesium acetate, 0.02% tween 20) was used to dilute SignalChem IRE1a protein to a final concentration of 2 nM. Selected compounds were serially diluted with DMSO in a non-binding black 384-well plate for a total of 15 ul in each well. 2 ul of the serially diluted compound or DMSO control were then added to new wells containing 98 ul of 1×CAB, for a total volume of 100 ul, 10 ul of which were then transferred to wells of a new plate. 5 ul of the diluted IRE1a was then added to each well. 5 ul of a […] XBP1 RNA probe was then added to each well. Fluorescence was then read over 30 minutes in kinetic mode (485/515 nm).
T1 sequence (O75460 19-977): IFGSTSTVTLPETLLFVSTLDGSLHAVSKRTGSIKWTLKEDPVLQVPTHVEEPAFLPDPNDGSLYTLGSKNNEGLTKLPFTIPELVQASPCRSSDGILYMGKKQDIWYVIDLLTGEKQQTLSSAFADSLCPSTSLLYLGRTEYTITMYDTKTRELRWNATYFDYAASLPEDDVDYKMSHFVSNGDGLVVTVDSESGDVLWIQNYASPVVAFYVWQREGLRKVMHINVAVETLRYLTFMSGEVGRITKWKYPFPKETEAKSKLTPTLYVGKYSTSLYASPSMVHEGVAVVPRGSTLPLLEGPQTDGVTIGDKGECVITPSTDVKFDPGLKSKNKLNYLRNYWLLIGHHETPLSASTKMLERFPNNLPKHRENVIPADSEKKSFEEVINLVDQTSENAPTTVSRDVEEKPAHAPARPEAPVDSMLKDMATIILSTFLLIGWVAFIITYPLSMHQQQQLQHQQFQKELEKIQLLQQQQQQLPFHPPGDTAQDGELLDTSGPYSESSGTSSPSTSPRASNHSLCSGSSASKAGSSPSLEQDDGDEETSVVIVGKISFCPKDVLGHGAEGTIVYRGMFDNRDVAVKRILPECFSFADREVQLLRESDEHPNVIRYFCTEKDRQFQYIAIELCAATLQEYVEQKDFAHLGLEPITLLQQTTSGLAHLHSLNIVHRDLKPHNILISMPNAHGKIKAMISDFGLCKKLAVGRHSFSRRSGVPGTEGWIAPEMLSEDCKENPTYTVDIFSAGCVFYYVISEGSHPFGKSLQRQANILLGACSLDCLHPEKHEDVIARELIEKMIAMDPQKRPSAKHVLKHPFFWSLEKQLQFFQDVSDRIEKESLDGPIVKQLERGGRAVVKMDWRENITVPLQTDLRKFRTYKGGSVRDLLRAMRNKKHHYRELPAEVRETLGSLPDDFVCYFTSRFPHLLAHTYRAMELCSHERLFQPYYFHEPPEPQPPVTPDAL
Two RNA probes were used, XBP1 wildtype (SEQ ID NO: 2) which is able to be spliced by active IRE1a or XBP1 mutant (SEQ ID NO: 3) which is unable to be spliced. Each probe contained a 5′ 6-FAM modification and a 3′ IOWA Black FQ modification.

In experiment [2] the target is T1, IRE1a. As to the kind of experiment: IRE1a Endoribonuclease Nanoluciferase Assay (XBP1 luciferase reporter in 293 T cells). Format: cell-based. The settings on record: 293 T cells transfected with XBP1 luciferase reporter plasmid. On the procedure: Compounds disclosed herein were assessed for disruption of IRE1 signaling using a IRE1a Endoribonuclease Nanoluciferase Assay. Briefly, 2.5×10^6 293 T cells were seeded in a 10 cm^2 tissue culture plate. About 24 hours later, the cells were transfected with Effectene. In a 15 mL Tube, the following was added: 2 μg XBP1 luciferase reporter plasmid (PGK-Luc2-P2A-XBP1u-Nanoluciferase-PEST); 300 μl EC buffer; and 16 μl Enhancer, followed by incubation at room temp for 5 minutes. Next, 60 μl Effectene (Qiagen 301427) was added, followed by incubation at room temperature for 10 minutes. 2.6 mL cDMEM media was added. Old media was aspirated from the cells, followed by addition of 7 mL fresh media. Full transfection mixture was added dropwise to cells. Cells were incubated for 6 hours, followed by tripsinization, centrifugation and resuspension in 11 mL media. 100 uL of cells were plated per a well in a 96 well plate. A day later, stressors of choice+/− inhibitors were added. To harvest, media was aspirated from cells completely, then 50 uL 1× passive lysis buffer (Promega: E1941) was added per well and put on shaker (300 rpm) for 30 minutes at room temperature. Cells were centrifuged, and 15 uL sample per well was added to a new, opaque white 384 well plate (Corning 3570). 15 uL OneGlo (nanoluciferase kit, Promega N1630) was added. Plates were spun down, placed on shaker (300 rpm) for 10 minutes. Plates were read on luminometer, 1000 ms integration time per well. 15 uL Stop and Glo (nanoluciferase kit) was added. Plates were spun down, placed on shaker (300 rpm) for 10 minutes. Plates were read on luminometer, 1000 ms second integration time per well. Recordings are provided below in Table 4.
(In general: Reporter assays use an easily measured gene product as a stand-in for the process of interest.)

Each structure is given as a SMILES string. pEC50, pIC50: −log10 of the molar value.

For orientation: pIC50 means the IC50 on a negative log10 scale, so that one unit is a factor of ten. A lower pIC50 goes with a high IC50. By pEC50 is commonly meant the negative decadic logarithm of the EC50, by convention in mol/L.

In turn, `CCc1cc(-c2cc(NC(=O)Cc3cc(C(F)(F)F)ccc3C(F)(F)F)nn2C)cc2cnc(N[C@H]3CC[C@H](N)CC3)nc12` [Compound 12, N-(5-(2-(((1r,4r)-4-aminocyclohexyl)amino)-8-ethylquinazolin-6-yl)-1-methyl-1H-pyrazol-3-yl)-2-(2,5-bis(trifluoromethyl)phenyl)acetamide] gave a pIC50 against IRE1a [1] of at least 8.30. Also, the “Mean EC50” value on IRE1a [2] was “A-B”.
On to `CCc1cc(-c2cc(NC(=O)Cc3cccc(C(F)(F)F)c3)nn2C)cc2cnc(N[C@H]3CC[C@H](N)CC3)nc12` [Compound 2, N-(5-(2-(((1r,4r)-4-aminocyclohexyl)amino)-8-ethylquinazolin-6-yl)-1-methyl-1H-pyrazol-3-yl)-2-(3-(trifluoromethyl)phenyl)acetamide], for which the pIC50 on IRE1a [1] was at least 8.30. Further, the pEC50 on IRE1a [2] was 7.00 to 7.30.
In turn, `CCc1cc(-c2cc(NC(=O)Cc3cc(C(F)(F)F)ccc3OC)nn2C)cc2cnc(N[C@H]3CC[C@H](N)CC3)nc12` [Compound 43, N-(5-(2-(((1r,4r)-4-aminocyclohexyl)amino)-8-ethylquinazolin-6-yl)-1-methyl-1H-pyrazol-3-yl)-2-(2-methoxy-5-(trifluoromethyl)phenyl)acetamide] gave a negative-log IC50 (pIC50) at IRE1a [1] of at least 8.30. Moreover, the pEC50 on IRE1a [2] was 7.30 to 8.30.
In turn, `CCc1cc(-c2cc(NC(=O)Nc3cc(C(F)(F)F)ccc3C(F)(F)F)nn2C)cc2cnc(N[C@H]3CC[C@H](N)CC3)nc12` [Compound 35, 1-(5-(2-(((1r,4r)-4-aminocyclohexyl)amino)-8-ethylquinazolin-6-yl)-1-methyl-1H-pyrazol-3-yl)-3-(2,5-bis(trifluoromethyl)phenyl)urea] had a pIC50 against IRE1a [1] of at least 8.30. The molecule further gave a pEC50 on IRE1a [2] of 7.30 to 8.30.
Taken in the same sequence, the figures for `CCc1cc(-c2cc(NC(=O)Cc3cc(C(F)(F)F)ccc3C(F)(F)F)nn2C)cc2cnc(N[C@H]3CC[C@H](NC(C)=O)CC3)nc12` [Compound 41, N-(5-(2-(((1r,4r)-4-acetamidocyclohexyl)amino)-8-ethylquinazolin-6-yl)-1-methyl-1H-pyrazol-3-yl)-2-(2,5-bis(trifluoromethyl)phenyl)acetamide] were below 7.00 and below 7.00.
Taken in the same sequence, the figures for `CCc1cc(-c2cc(NC(=O)Cc3cc(C(F)(F)F)ccc3C(F)(F)F)nn2C)cc2cnc(N[C@H]3CC[C@H](NC(=O)COC)CC3)nc12` [Compound 42, 2-(2,5-bis(trifluoromethyl)phenyl)-N-(5-(8-ethyl-2-(((1r,4r)-4-(2-methoxyacetamido)cyclohexyl)amino)quinazolin-6-yl)-1-methyl-1H-pyrazol-3-yl)acetamide] were below 7.00 and below 7.00.
As to `CCc1cc(-c2cc(NC(=O)Nc3cccc(C(F)(F)F)c3)nn2C)cc2cnc(N[C@H]3CC[C@H](N)CC3)nc12` [Compound 19, 1-(5-(2-(((1r,4r)-4-aminocyclohexyl)amino)-8-ethylquinazolin-6-yl)-1-methyl-1H-pyrazol-3-yl)-3-(3-(trifluoromethyl)phenyl)urea], at IRE1a [1], the negative logarithm of the IC50 (pIC50) was at least 8.30. This molecule had a pEC50 on IRE1a [2] of 7.30 to 8.30.
For `CCc1cc(-c2cc(NC(=O)Cc3ccc(OC4CCN(C)CC4)c(C(F)(F)F)c3)nn2C)cc2cnc(N[C@H]3CC[C@H](N)CC3)nc12` [Compound 32, N-(5-(2-(((1r,4r)-4-aminocyclohexyl)amino)-8-ethylquinazolin-6-yl)-1-methyl-1H-pyrazol-3-yl)-2-(4-((1-methylpiperidin-4-yl)oxy)-3-(trifluoromethyl)phenyl)acetamide], in that order: at least 8.30 and at least 8.30.
Taken in the same sequence, the figures for `CCc1cc(-c2cc(NC(=O)Cc3ccc(Cl)c(C(F)(F)F)c3)nn2C)cc2cnc(N[C@H]3CC[C@H](N)CC3)nc12` [Compound 18, N-(5-(2-(((1r,4r)-4-aminocyclohexyl)amino)-8-ethylquinazolin-6-yl)-1-methyl-1H-pyrazol-3-yl)-2-(4-chloro-3-(trifluoromethyl)phenyl)acetamide] were 7.30 to 8.30 and below 7.00.
Turning to `CCc1cc(-c2cc(NC(=O)C(C)c3cccc(C(F)(F)F)c3)nn2C)cc2cnc(N[C@H]3CC[C@H](N)CC3)nc12` (stereo partly drawn) [Compound 25, N-(5-(2-(((1r,4r)-4-aminocyclohexyl)amino)-8-ethylquinazolin-6-yl)-1-methyl-1H-pyrazol-3-yl)-2-(3-(trifluoromethyl)phenyl)propanamide], the pIC50 on IRE1a [1] was 7.30 to 8.30. Further, the pEC50 at IRE1a [2] is below 7.00.
Taken in the same sequence, the figures for `CCc1cc(-c2cc(NC(=O)Cc3cc(C(F)(F)F)ccc3C)nn2C)cc2cnc(N[C@H]3CC[C@H](N)CC3)nc12` [Compound 34, N-(5-(2-(((1r,4r)-4-aminocyclohexyl)amino)-8-ethylquinazolin-6-yl)-1-methyl-1H-pyrazol-3-yl)-2-(2-methyl-5-(trifluoromethyl)phenyl)acetamide] were at least 8.30 and 7.30 to 8.30.
For `CCc1cc(-c2cc(NC(=O)Nc3ccc(OC4CCN(C)CC4)c(C(F)(F)F)c3)nn2C)cc2cnc(N[C@H]3CC[C@H](N)CC3)nc12` [Compound 4; Formic Acid, 1-(5-(2-(((1r,4r)-4-aminocyclohexyl)amino)-8-ethylquinazolin-6-yl)-1-methyl-1H-pyrazol-3-yl)-3-(4-((1-methylpiperidin-4-yl)oxy)-3-(trifluoromethyl)phenyl)urea], in that order: at least 8.30 and at least 8.30.
Turning to `Cn1nc(NC(=O)Cc2cccc(C(F)(F)F)c2)cc1-c1ccc2nc(N[C@H]3CC[C@H](N)CC3)ncc2c1` [Compound 1, N-(5-(2-(((1r,4r)-4-aminocyclohexyl)amino)quinazolin-6-yl)-1-methyl-1H-pyrazol-3-yl)-2-(3-(trifluoromethyl)phenyl)acetamide], the pIC50 at IRE1a [1] was 7.00 to 7.30. Moreover, the pEC50 at IRE1a [2] is below 7.00.
The molecule `CCc1cc(-c2cc(NC(=O)Cc3cc(F)ccc3C(F)(F)F)nn2C)cc2cnc(N[C@H]3CC[C@H](N)CC3)nc12` [Compound 13, N-(5-(2-(((1r,4r)-4-aminocyclohexyl)amino)-8-ethylquinazolin-6-yl)-1-methyl-1H-pyrazol-3-yl)-2-(5-fluoro-2-(trifluoromethyl)phenyl)acetamide] showed a pIC50 against IRE1a [1] of 7.30 to 8.30. On IRE1a [2], this molecule showed a pEC50 below 7.00.
Taken in the same sequence, the figures for `CCc1cc(-c2cc(NC(=O)Nc3ccc(OCCCNC)c(C(F)(F)F)c3)nn2C)cc2cnc(N[C@H]3CC[C@H](N)CC3)nc12` [Compound 29, 1-(5-(2-(((1r,4r)-4-aminocyclohexyl)amino)-8-ethylquinazolin-6-yl)-1-methyl-1H-pyrazol-3-yl)-3-(4-(3-(methylamino)propoxy)-3-(trifluoromethyl)phenyl)urea] were at least 8.30 and at least 8.30.
At IRE1a [1], `CCc1cc(-c2cc(NC(=O)Cc3ccc(C(F)(F)F)cc3)nn2C)cc2cnc(N[C@H]3CC[C@H](N)CC3)nc12` [Compound 6, N-(5-(2-(((1r,4r)-4-aminocyclohexyl)amino)-8-ethylquinazolin-6-yl)-1-methyl-1H-pyrazol-3-yl)-2-(4-(trifluoromethyl)phenyl)acetamide] gave a pIC50 of at least 8.30. The pEC50 at IRE1a [2] was below 7.00.
The molecule `CCc1cc(-c2cc(NC(=O)Cc3cccc(OC(F)(F)F)c3)nn2C)cc2cnc(N[C@H]3CC[C@H](N)CC3)nc12` [Compound 11, N-(5-(2-(((1r,4r)-4-aminocyclohexyl)amino)-8-ethylquinazolin-6-yl)-1-methyl-1H-pyrazol-3-yl)-2-(3-(trifluoromethoxy)phenyl)acetamide] gave a pIC50 against IRE1a [1] of 7.30 to 8.30. The molecule further had a pEC50 at IRE1a [2] below 7.00.
Taken in the same sequence, the figures for `CCc1cc(-c2cc(NC(=O)Cc3cccc(C(F)(F)F)c3)nn2C)cc2cnc(N[C@H]3CC[C@H](N(C)C)CC3)nc12` [Compound 39, N-(5-(2-(((1r,4r)-4-(dimethylamino)cyclohexyl)amino)-8-ethylquinazolin-6-yl)-1-methyl-1H-pyrazol-3-yl)-2-(3-(trifluoromethyl)phenyl)acetamide] were at least 8.30 and 7.30 to 8.30.
